Laboratory results as given in PubChem BioAssay (NCI).
“And” between values parts separate entries of the source, which are not always exact repeats. Equal entries are not always repeated.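 Growth conditions: 96-well plates. Treatment: test compound, 48 hours, 5 concentrations. Analysis: linear interpolation between bracketing concentrations; unreached endpoints set to highest concentration. The concentration for 50% growth inhibition is given as GI50. TGI denotes the concentration required for complete inhibition of growth.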

Tests used:
Experiment in all cases: DTP human tumour cell line panel, 48 h
HS 578T breast = tested on: HS 578T breast
MOLT-4 leukemia = tested on: MOLT-4 leukemia
NCI/ADR-RES ovarian = tested on: NCI/ADR-RES ovarian
RXF 393 renal = tested on: RXF 393 renal
SR leukemia = tested on: SR leukemia
HCT-116 colon = tested on: HCT-116 colon
K-562 leukemia = tested on: K-562 leukemia
RPMI-8226 leukemia = tested on: RPMI-8226 leukemia
SNB-19 CNS = tested on: SNB-19 CNS
MALME-3M melanoma = tested on: MALME-3M melanoma

Structure (SMILES) | GI50 (HS 578T breast) | TGI (HS 578T breast) [µM] | GI50 (MOLT-4 leukemia) | TGI (MOLT-4 leukemia) | GI50 (NCI/ADR-RES ovarian) | TGI (NCI/ADR-RES ovarian) | GI50 (RXF 393 renal) [µM] | TGI (RXF 393 renal) [µM] | GI50 (SR leukemia) | TGI (SR leukemia) | GI50 (HCT-116 colon) | TGI (HCT-116 colon) [µM] | GI50 (K-562 leukemia) | TGI (K-562 leukemia) [µM] | GI50 (RPMI-8226 leukemia) [µM] | TGI (RPMI-8226 leukemia) [µM] | GI50 (SNB-19 CNS) [µM] | TGI (SNB-19 CNS) | GI50 (MALME-3M melanoma) | TGI (MALME-3M melanoma) [µM]
COc1cc(/C=C/c2cc(/C=C/c3ccc(O)c(OC)c3)n(-c3ccccc3)n2)ccc1O | 0.157 µM | > 23.2 | 0.347 µM | > 100 µM | 0.0874 µM | 3.85 µM | 0.258 | 0.888 | 0.0353 µM | > 100 µM | – | – | – | – | – | – | – | – | – | –
CSc1cc(N=Nc2nc3ccccc3s2)c2ccccc2c1O | 20.9 µM | > 50 | – | – | 7.17 µM | 20.7 µM | 5.99 | 14.3 | 0.973 µM | 19.4 µM | 7.3 µM | 29.3 | 3.6 µM | 15.2 | 2.51 | 25.6 | 9.59 | 25.7 µM | – | –
O=C(CI)NC1Oc2ccccc2-c2oc(=O)c(-c3ccccc3)cc21 (centres undefined) | 2.4 µM | 7.28 | – | – | – | – | 1.5 | 3 | 0.357 µM | > 100 µM | – | – | 1.32 µM | 11.9 | 2.08 | 4.79 | 2.64 | 7.54 µM | 1.73 µM | 3.27
CC1OC(O[C@H]2C[C@@H](O)[C@]3(CO)[C@H]4[C@H](O)C[C@]5(C)[C@@H](C6=CC(=O)OC6)CC[C@]5(O)[C@@H]4CC[C@]3(O)C2)C(O)C(O)C1O (some centres undefined) | 25.6 µM | 65.9 | 17.9 µM | 41.8 µM | 19.5 µM | 39.9 µM | 27.5 | 75.6 | 10.2 µM | 38 µM | 19 µM | 33.7 | – | – | 26.5 | 54.5 | 18.3 | 33.6 µM | 19.5 µM | 35.9
CN1CCN(Cc2ccc(NC(=O)c3cncc(C#Cc4cnc(N)c5ccc(C#N)cc45)c3)cc2C(F)(F)F)CC1 | 0.0217 µM | 0.406 | 0.028 µM | 1.4 µM | 0.915 µM | 2.03 µM | 0.0162 | 0.151 | 0.0464 µM | 2.4 µM | 0.0254 µM | 0.672 | – | – | 0.0775 | 1.25 | – | – | 0.0134 µM | 0.0943
O=C1CNCCCN2CCN(CCCNCC(=O)Nc3ccc(cc3)S(=O)(=O)c3ccc(cc3)NC(=O)CNCCCN3CCN(CCCNCC(=O)Nc4ccc(cc4)S(=O)(=O)c4ccc(cc4)N1)CC3)CC2 | – | > 69.4 | – | > 51 µM | – | > 100 µM | – | > 70.2 | – | – | – | > 80.4 | – | > 58.5 | – | 64 | – | > 100 µM | – | 24.2
Cn1cc(-c2cnc3ccc(NC(=O)Nc4ccc(F)c(Br)c4)cc3n2)cn1 | 2 µM | 5.15 | – | – | 2.21 µM | 5.41 µM | 1.73 | 4.67 | – | – | 1.87 µM | 3.75 | – | – | 1.25 | 3.82 | 2.66 | 10.4 µM | 1.56 µM | 3.55
N#CSCC1CC(O)(c2ccccc2)C(c2ccccc2)C(c2ccc(Cl)cc2)O1 (centres undefined) | 3.22 µM | 81 | – | – | 1.67 µM | 3.43 µM | 1.62 | 3.24 | 1.9 µM | 4.95 µM | 0.569 µM | 1.99 | 1.37 µM | 5.42 | 1.44 | 4.68 | – | – | 1.52 µM | 3.02
N#Cc1ccc(C#Cc2ccccc2C#CCCCCO)cc1 | 25.7 µM | 64.2 | 17.8 µM | 37.7 µM | 17.7 µM | 36.9 µM | 7.05 | 24.4 | – | – | 12.7 µM | 25.3 | 21.7 µM | 46.1 | 20.6 | 44.1 | 15.8 | 29.9 µM | 21 µM | 38.7
COc1cccc(-c2cc(=O)c3cc(N(C)C)ccc3[nH]2)c1 | 0.0221 µM and 0.00461 µM | – | 0.0435 µM and 0.00642 µM | 0.0401 µM and 0.0259 µM | 0.0144 µM and 0.00533 µM | 0.0318 µM and 0.021 µM and 0.0222 µM | – | – | 0.00495 µM and 0.00224 µM | 0.188 µM and 0.0233 µM | 0.0155 µM and 0.00433 µM | – | 0.00937 µM and 0.00404 µM | 0.0887 | – | – | – | 0.825 µM and 0.843 µM | 0.00987 µM and 0.00403 µM | > 100
Cc1ccc(S(=O)(=O)N(CCOc2ccc(/C(N)=N/Cl)cc2)CCOc2ccc(/C(N)=N\Cl)cc2)cc1 | 4.28 µM | 22.7 | 30.6 µM | > 100 µM | > 100 µM | > 100 µM | – | – | 27.8 µM | > 100 µM | 12.7 µM | > 100 | 4.17 µM | 24 | 8.99 | > 100 | 5.65 | > 100 µM | 19.6 µM | 83.6
CN(C)CCC(=O)N1C/C(=C/c2ccccc2)C(=O)/C(=C\c2ccccc2)C1 | – | 20.3 | – | 1.46 µM | – | – | – | 4.94 | – | 8.63 µM | – | 1.15 | – | 0.973 | – | 0.717 | – | 7.62 µM | – | 5.9
CCNCCNc1cc(-c2ccc(C(=O)OC)cc2)c(C#N)c2nc3ccccc3n12 | 2.42 µM | 7.48 | – | – | 2.8 µM | > 100 µM | 1.42 | 2.85 | 0.24 µM | 0.613 µM | 0.758 µM | 2.09 | 1.23 µM | 3.2 | 1.99 | 5.3 | 4.57 | > 100 µM | 1.95 µM | 3.69
CSc1ccc(C2=NN(C(C)=O)C(c3cc(C)cs3)C2)cc1 (centres undefined) | 22.3 µM | 88.6 | 7.26 µM | 44.1 µM | 24.5 µM | > 100 µM | 56.7 | > 100 | – | – | 20.4 µM | 66.1 | 9.31 µM | > 100 | 15.3 | > 100 | 37 | > 100 µM | 25.5 µM | 97.5
Nc1ccn(C2O[C@H](CO)[C@@H](O)[C@@H]2O)c(=O)n1 (some centres undefined) | – | > 100 | 16.1 µM | > 100 µM | – | > 100 µM | – | > 100 | > 100 µM | > 100 µM | 24.2 µM | > 100 | – | – | – | – | – | > 100 µM | 79.6 µM | > 100
